In US7947732B2, “Therapeutic substituted chlorocyclopentanols” (Allergan, Inc., priority 2007, dated 2011):
Where a name gives a salt, the structure may show the parent alone. Read-outs that look alike come from different tables or passages of the source. Each block holds one compound with its values, some of them ahead of it.

Tests used:
hTP = molecular target: T1, hTP (Homo sapiens, UniProt P21731); assay: Other receptors functional EC50: hTP; type: cell-based
T1 sequence (P21731 1-343): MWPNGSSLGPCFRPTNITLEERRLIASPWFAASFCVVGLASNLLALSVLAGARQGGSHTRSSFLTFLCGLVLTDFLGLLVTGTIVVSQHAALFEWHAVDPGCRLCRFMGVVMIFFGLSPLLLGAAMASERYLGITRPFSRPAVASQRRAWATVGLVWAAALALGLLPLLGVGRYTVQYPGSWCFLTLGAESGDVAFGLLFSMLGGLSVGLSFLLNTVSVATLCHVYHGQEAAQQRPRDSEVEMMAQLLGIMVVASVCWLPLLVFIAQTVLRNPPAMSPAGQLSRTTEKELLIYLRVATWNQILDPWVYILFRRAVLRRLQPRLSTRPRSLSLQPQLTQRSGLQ
Description: (§1) U.S. patent application Ser. No. 11/553,143, filed on Oct. 26, 2006, now issued as U.S. Pat. No. 7,427,685 incorporated by reference herein, describes the methods used to obtain the in vitro data in the tables below.

hDP = molecular target: T2, hDP (Homo sapiens, UniProt Q13258); assay: Other receptors functional EC50: hDP; type: cell-based
T2 sequence (Q13258 1-359): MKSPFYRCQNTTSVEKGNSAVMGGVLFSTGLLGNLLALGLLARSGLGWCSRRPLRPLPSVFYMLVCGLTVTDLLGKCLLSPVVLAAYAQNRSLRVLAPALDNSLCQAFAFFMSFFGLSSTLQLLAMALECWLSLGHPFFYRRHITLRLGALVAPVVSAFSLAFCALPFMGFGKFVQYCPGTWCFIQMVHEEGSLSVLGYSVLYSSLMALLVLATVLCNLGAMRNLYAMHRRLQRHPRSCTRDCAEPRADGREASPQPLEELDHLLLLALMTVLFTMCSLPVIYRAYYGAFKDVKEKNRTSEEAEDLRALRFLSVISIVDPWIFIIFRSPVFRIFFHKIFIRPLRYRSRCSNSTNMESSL
Description: as §1

normotensive dogs [1] = assay: Ocular surface hyperemia in normotensive dogs; type: in vivo; design: scale not given here
Description: (§2) U.S. Pat. No. 7,091,231 describes the methods used for these in vivo tests.

normotensive dogs [2] = assay: Intraocular pressure in normotensive dogs; type: in vivo; settings: once daily for 5 days
Description: as §2

EP2 [3] = molecular target: T3, EP2 (Homo sapiens, UniProt P43116); assay: EP2 flipr functional assay; type: cell-based
Description: as §1

EP2 [4] = molecular target: T3, EP2; assay: EP2 binding (KI)
Description: as §1

EP4 [5] = molecular target: T4, EP4 (Homo sapiens, UniProt P35408); assay: EP4 flipr functional assay; type: cell-based; settings: read-out: EP4 data filpr EC50
Description: as §1

EP2 [6] = molecular target: T3, EP2; assay: EP2 cAMP assay; type: cell-based
Description: as §1

EP4 [7] = molecular target: T4, EP4; assay: EP4 binding (KI)
Description: as §1

hEP3A = molecular target: T5, hEP3A (Homo sapiens, UniProt P43115); assay: Other receptors functional EC50: hEP3A; type: cell-based
T5 sequence (P43115 1-390): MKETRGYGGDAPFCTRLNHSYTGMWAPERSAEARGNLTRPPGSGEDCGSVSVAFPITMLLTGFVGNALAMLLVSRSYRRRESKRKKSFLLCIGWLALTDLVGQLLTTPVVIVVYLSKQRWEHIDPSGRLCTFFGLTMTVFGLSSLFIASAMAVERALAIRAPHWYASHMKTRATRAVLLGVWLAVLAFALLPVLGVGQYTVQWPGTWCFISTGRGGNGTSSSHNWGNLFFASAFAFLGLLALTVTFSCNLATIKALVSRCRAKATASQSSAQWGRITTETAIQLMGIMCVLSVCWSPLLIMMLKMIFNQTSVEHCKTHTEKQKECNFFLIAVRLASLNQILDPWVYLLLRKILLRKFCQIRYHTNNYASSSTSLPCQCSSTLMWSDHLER
Description: as §1

[8] = 0.001%, once daily for 5 days, at 50 h

T4 sequence (P35408 whole entry): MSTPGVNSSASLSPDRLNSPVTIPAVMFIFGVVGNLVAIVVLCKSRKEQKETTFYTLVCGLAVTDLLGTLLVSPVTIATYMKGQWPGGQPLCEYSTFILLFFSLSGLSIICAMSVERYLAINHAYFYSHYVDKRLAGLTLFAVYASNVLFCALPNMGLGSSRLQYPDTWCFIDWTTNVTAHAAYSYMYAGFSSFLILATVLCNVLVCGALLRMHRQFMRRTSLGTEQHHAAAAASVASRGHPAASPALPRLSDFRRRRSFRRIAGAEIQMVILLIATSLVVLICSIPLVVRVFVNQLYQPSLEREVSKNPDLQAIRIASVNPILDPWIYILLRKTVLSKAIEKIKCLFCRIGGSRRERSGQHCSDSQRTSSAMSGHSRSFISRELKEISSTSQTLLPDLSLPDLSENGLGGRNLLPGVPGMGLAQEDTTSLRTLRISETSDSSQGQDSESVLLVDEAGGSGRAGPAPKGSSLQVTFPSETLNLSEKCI
T3 sequence (P43116 whole entry): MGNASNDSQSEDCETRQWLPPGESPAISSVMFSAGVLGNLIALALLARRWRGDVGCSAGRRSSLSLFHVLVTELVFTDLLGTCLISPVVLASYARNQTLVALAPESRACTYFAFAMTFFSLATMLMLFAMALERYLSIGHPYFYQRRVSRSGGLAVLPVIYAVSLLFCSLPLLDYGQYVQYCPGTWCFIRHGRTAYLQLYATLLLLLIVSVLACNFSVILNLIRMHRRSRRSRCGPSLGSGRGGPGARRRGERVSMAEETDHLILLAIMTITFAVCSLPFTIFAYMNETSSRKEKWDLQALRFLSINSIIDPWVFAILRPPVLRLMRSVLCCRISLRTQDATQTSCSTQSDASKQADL

SMILES: CCN(CC)CCOC(=O)c1ccc(CCC[C@@H]2[C@@H](CCc3cc(Cl)cc(Cl)c3)[C@H](O)C[C@H]2Cl)s1 [2-(Diethylamino)ethyl 5-(3-((1R,2R,3R,5R)-5-chloro-2-(3,5-dichlorophenethyl)-3-hydroxycyclopentyl)propyl)thiophene-2-carboxylate]
maximum ocular surface hyperemia (OSH) score (normotensive dogs [1]; 0.001%, once daily for 5 days, at 28 h): 1.8
maximum intraocular pressure (IOP) decrease from baseline (normotensive dogs [2]; 0.001%, at 78 h): 6.9 mmHg
inhibition in vivo at 0.001 % (normotensive dogs [2]; Canis lupus familiaris, 0.001%, at 78 h, read-out: maximum intraocular pressure (IOP) decrease from baseline): 47%

SMILES: O=C(O)c1ccc(CCC[C@@H]2[C@@H](CCc3cc(Cl)cc(Cl)c3)[C@H](O)C[C@H]2Cl)s1 [5-(3-((1R,2R,3R,5R)-5-chloro-2-(3,5-dichlorophenethyl)-3-hydroxycyclopentyl)propyl)thiophene-2-carboxylic acid]
maximum ocular surface hyperemia (OSH) score (normotensive dogs [1]; 0.0001%, once daily for 5 days, at 74 h): 0.8
maximum ocular surface hyperemia (OSH) score (normotensive dogs [1]; 0.0005%, once daily for 5 days, at 50 h): 1.75
maximum ocular surface hyperemia (OSH) score (normotensive dogs [1]; [8]): 1.8
maximum ocular surface hyperemia (OSH) score (normotensive dogs [1]; 0.01%, once daily for 5 days, at 26 h): 2.5

SMILES: O=C(O)c1ccc(CCC[C@@H]2[C@@H](CSc3cc(Cl)cc(Cl)c3)[C@H](O)C[C@H]2Cl)s1 [5-(3-((1R,2R,3R,5R)-5-chloro-2-((3,5-dichlorophenylthio)methyl)-3-hydroxycyclopentyl)propyl)-thiophene-2-carboxylic acid]
maximum ocular surface hyperemia (OSH) score (normotensive dogs [1]; 0.01%, once daily for 5 days, at 52 h): 1.7
maximum intraocular pressure (IOP) decrease from baseline (normotensive dogs [2]; 0.01%, at 6 h): 6.3 mmHg
inhibition in vivo at 0.01 % (normotensive dogs [2]; Canis lupus familiaris, 0.01%, at 6 h, read-out: maximum intraocular pressure (IOP) decrease from baseline): 35%

SMILES: O=C(O)c1ccc(CCC[C@@H]2[C@@H](CNc3cc(Cl)cc(Cl)c3)[C@H](O)C[C@H]2Cl)s1 [5-(3-((1R,2S,3R,5R)-5-chloro-2-((3,5-dichlorophenylamino)methyl)-3-hydroxycyclopentyl)propyl)thiophene-2-carboxylic acid]
maximum ocular surface hyperemia (OSH) score (normotensive dogs [1]; 0.001%, once daily for 5 days, at 76 h): 1.5
maximum intraocular pressure (IOP) decrease from baseline (normotensive dogs [2]; 0.001%, at 6 h): 2.6 mmHg
inhibition in vivo at 0.001 % (normotensive dogs [2]; Canis lupus familiaris, 0.001%, at 6 h, read-out: maximum intraocular pressure (IOP) decrease from baseline): 18%

SMILES: O=C(O)CCCCCC[C@@H]1[C@@H](CCc2cc(Cl)cc(Cl)c2)[C@H](O)C[C@H]1Cl [7-{(1R,2R,3R,5R)-5-Chloro-2-[2-(3,5-dichloro-phenyl)-ethyl]-3-hydroxy-cyclopentyl}-heptanoic acid]
maximum ocular surface hyperemia (OSH) score (normotensive dogs [1]; 0.01%, once daily for 5 days, at 74 h): 0.8

SMILES: CC(C)OC(=O)c1ccc(CCC[C@@H]2[C@@H](CCc3cc(Cl)cc(CO)c3)[C@H](O)C[C@H]2Cl)s1 [Isopropyl 5-(3-((1R,2R,3R,5R)-5-chloro-2-(3-chloro-5-(hydroxymethyl)phenethyl)-3-hydroxycyclopentyl)propyl)thiophene-2-carboxylate]
maximum ocular surface hyperemia (OSH) score (normotensive dogs [1]; 0.001%, once daily for 5 days, at 26 h): 0.9

SMILES: O=C(O)c1ccc(CCC[C@@H]2[C@@H](CNc3cc(Cl)cc(Cl)c3)[C@H](O)C[C@H]2Cl)s1 [drawing 6]
EC50 (EP2 [3]): 20 nM
Ki (EP2 [4]): 1.5 nM
EC50 (EP4 [5]): 5580 nM
EC50 (EP2 [6]): 0.09 nM
Ki (EP4 [7]): 678 nM
EC50 (hEP3A): 7140 nM

SMILES: O=C(O)c1ccc(CCC[C@@H]2[C@@H](C[S+]([O-])c3cc(Cl)cc(Cl)c3)[C@H](O)C[C@H]2Cl)s1 (some centres unmarked) [drawing 8]
Ki (EP4 [7]): > 1000 nM

Now from value to compound, other results behind:

EC50 (hTP): 5310 nM
EC50 (hDP): 9690 nM
SMILES: O=C(O)c1ccc(CCC[C@@H]2[C@@H](CSc3cc(F)cc(F)c3)[C@H](O)C[C@H]2Cl)s1

maximum ocular surface hyperemia (OSH) score (normotensive dogs [1]; 0.0005%, once daily for 5 days, at 98 h): 1.25
SMILES: CCN(CC)CCOC(=O)c1ccc(CCC[C@@H]2[C@@H](CCc3cc(Cl)cc(Cl)c3)[C@H](O)C[C@H]2Cl)s1 [2-(Diethylamino)ethyl 5-(3-((1R,2R,3R,5R)-5-chloro-2-(3,5-dichlorophenethyl)-3-hydroxycyclopentyl)propyl)thiophene-2-carboxylate hydrochloride]
maximum intraocular pressure (IOP) decrease from baseline (normotensive dogs [2]; 0.0005%, at 28 h): 5.3 mmHg
inhibition in vivo at 0.0005 % (normotensive dogs [2]; Canis lupus familiaris, 0.0005%, at 28 h, read-out: maximum intraocular pressure (IOP) decrease from baseline): 33%

maximum ocular surface hyperemia (OSH) score (normotensive dogs [1]; 0.005%, once daily for 5 days, at 30 h): 1.4
SMILES: O=C(O)c1ccc(CCC[C@@H]2[C@@H](C[S+]([O-])c3cc(Cl)cc(Cl)c3)[C@H](O)C[C@H]2Cl)s1 (stereo partly drawn) [5-(3-((1R,2R,3R,5R)-5-chloro-2-((3,5-dichlorophenylsulfinyl)methyl)-3-hydroxycyclopentyl)propyl)thiophene-2-carboxylic acid]
maximum intraocular pressure (IOP) decrease from baseline (normotensive dogs [2]; 0.005%, at 4 h): 3.1 mmHg
inhibition in vivo at 0.005 % (normotensive dogs [2]; Canis lupus familiaris, 0.005%, at 4 h, read-out: maximum intraocular pressure (IOP) decrease from baseline): 21%

maximum ocular surface hyperemia (OSH) score (normotensive dogs [1]; 0.001%, once daily for 4 days, at 74 h): 1.9
SMILES: O=C(O)c1ccc(CCC[C@@H]2[C@@H](CCc3cc(Cl)nc(Cl)c3)[C@H](O)C[C@H]2Cl)s1 [11b, 5-(3-((1R,2R,3R,5R)-5-chloro-2-(2-(2,6-dichloropyridin-4-yl)ethyl)-3-hydroxycyclopentyl)propyl)-thiophene-2-carboxylic acid]

maximum ocular surface hyperemia (OSH) score (normotensive dogs [1]; [8]): 0.8
SMILES: O=C(O)c1ccc(CCC[C@@H]2[C@@H](CCc3cc(Cl)cc(CO)c3)[C@H](O)C[C@H]2Cl)s1 [11c, 5-(3-((1R,2R,3R,5R)-5-chloro-2-(3-chloro-5-(hydroxymethyl)phenethyl)-3-hydroxycyclopentyl)propyl)thiophene-2-carboxylic acid]
